Experimental data published in ChEMBL document CHEMBL5360581, “Discovery of a novel dual functional phenylpyrazole-styryl hybrid that induces apoptotic and autophagic cell death in bladder cancer cells” (Eur J Med Chem, 2023).
Activity calls are given as the source filed them. The rule behind the calls is not given here.

Legend:
EJ-28 [1] = assay: Induction of apoptosis in human EJ-28 cells assessed as upregulation of phosphorylated Bcl-2 level incubated for 24 to 72 hrs by Western blotting analysis; type: functional, cell-based; conditions: time 24-72 hrs
EJ-28 [2] = assay: Induction of autophagy in human EJ-28 cells assessed as increase in green fluorescence intensity incubated for 24 hrs by flow cytometry analysis; type: functional, cell-based; conditions: dose 5-12.5 µM
EJ-28 [3] = assay: Induction of autophagy in human EJ-28 cells assessed as upregulation of LC3B-2 expression at 5 to 12.5 uM incubated for 24 to 72 hrs by Western blot analysis; type: functional, cell-based; conditions: dose 5-12.5 µM, time 24-72 hrs
EJ-28 [4] = assay: Induction of autophagy in human EJ-28 cells assessed as downregulation of mTOR expression at 5 to 12.5 uM incubated for 24 hrs by Western blot analysis; type: functional, cell-based; conditions: dose 5-12.5 µM
[5] = Toxicity in Zebrafish embryo assessed as mortality at 12.5 to 50 uM administered for 4 hrs post fertilization and measured after 6 days post fertilization; design: species or system Danio rerio; conditions: in vivo, 144 h, dose 12.5-50 µM, time 6 day
A549 [6] = assay: Antiproliferative activity against human A549 cells assessed as reduction in cell viability at 20 uM measured for 72 hrs by MTT assay; type: functional, cell-based
SV-HUC-1 = assay: Induction of morphological changes in human SV-HUC-1 cells at 7.5 uM incubated for 24 to 72 hrs by microscopic analysis; type: functional, cell-based; conditions: time 24-72 hrs
EJ-28 [7] = assay: Induction of apoptosis in human EJ-28 cells assessed as upregulation of PARP expression incubated for 48 to 72 hrs by Western blotting analysis; type: functional, cell-based; conditions: time 48-72 hrs
EJ-28 [8] = assay: Induction of autophagy in human EJ-28 cells assessed as downregulation of EGFR expression at 5 to 12.5 uM incubated for 24 hrs by Western blot analysis; type: functional, cell-based; conditions: dose 5-12.5 µM
[9] = Cytotoxicity against human SV-HUC-1 cells assessed as reduction in cell viability at 7.5 uM incubated for 72 hrs by MTT assay; type: toxicity, cell-based; conditions: sv-huc-1, 72 h
EJ-28 [10] = assay: Induction of cell cycle arrest in human EJ-28 cells assessed as accumulation of cells at S phase at 1.25 uM incubated for 48 hrs by propidium iodide staining based flow cytometry (reference value: 30%); type: functional
EJ-28 [11] = assay: Induction of apoptosis in human EJ-28 cells assessed as upregulation of PUMA expression incubated for 48 hrs by Western blotting analysis; type: functional, cell-based
EJ-28 [12] = assay: Induction of cell cycle arrest in human EJ-28 cells assessed as accumulation of cells at G2/M phase at 2.5 uM incubated for 48 hrs by propidium iodide staining based flow cytometry (reference value: 20%); type: functional
EJ-28 [13] = assay: Induction of autophagy in human EJ-28 cells assessed as increase in green fluorescence intensity at 5 to 12.5 uM incubated for 36 to 48 hrs by flow cytometry analysis; type: functional, cell-based; conditions: dose 5-12.5 µM, time 36-48 hrs
EJ-28 [14] = assay: Induction of autophagy in human EJ-28 cells assessed as upregulation of AKT expression at 5 to 12.5 uM incubated for 48 to 72 hrs by Western blot analysis; type: functional, cell-based; conditions: dose 5-12.5 µM, time 48-72 hrs
A549 [15] = assay: Cytotoxicity against human A549 cells assessed inhibition of cell growth incubated for 72 hrs by MTT assay; type: functional, cell-based; conditions: A549, 72 h
EJ-28 [16] = assay: Induction of cell cycle arrest in human EJ-28 cells assessed as accumulation of cells at S phase at 2.5 uM incubated for 48 hrs by propidium iodide staining based flow cytometry (reference value: 30%); type: functional
[17] = Toxicity in Zebrafish embryo assessed as lack of pigmentation at 12.5 uM administered for 4 hrs post fertilization and measured after 3 days post fertilization; design: species or system Danio rerio; conditions: in vivo, 72 h, time 3 day
EJ-28 [18] = assay: Induction of apoptosis in human EJ-28 cells assessed as downregulation of procaspase-7 expression incubated for 24 to 72 hrs by Western blotting analysis; type: functional, cell-based; conditions: time 24-72 hrs
EJ-28 [19] = assay: Induction of apoptosis in human EJ-28 cells assessed as upregulation of Bak expression incubated for 24 hrs by Western blotting analysis; type: functional, cell-based
EJ-28 [20] = assay: Antiproliferative activity against human EJ-28 cells assessed as reduction in cell viability at 20 uM measured for 72 hrs by MTT assay; type: functional, cell-based
EJ-28 [21] = assay: Induction of apoptosis in human EJ-28 cells assessed as upregulation of Bad expression incubated for 48 hrs by Western blotting analysis; type: functional, cell-based
EJ-28 [22] = assay: Induction of cell cycle arrest in human EJ-28 cells assessed as accumulation of cells at sub-G0/G1 phase at 10 uM incubated for 48 hrs by propidium iodide staining based flow cytometry (reference value: 48%); type: functional
EJ-28 [23] = assay: Induction of cell cycle arrest in human EJ-28 cells assessed as accumulation of cells at G2/M phase at 1.25 uM incubated for 48 hrs by propidium iodide staining based flow cytometry (reference value: 20%); type: functional
EJ-28 [24] = assay: Induction of cell cycle arrest in human EJ-28 cells assessed as accumulation of cells at S phase at 10 uM incubated for 48 hrs by propidium iodide staining based flow cytometry (reference value: 30%); type: functional
EJ-28 [25] = assay: Induction of cell cycle arrest in human EJ-28 cells assessed as accumulation of cells at sub-G0/G1 phase at 2.5 uM incubated for 48 hrs by propidium iodide staining based flow cytometry (reference value: 48%); type: functional
EJ-28 [26] = assay: Induction of autophagy in human EJ-28 cells assessed as upregulation of Atg5 expression at 5 to 12.5 uM incubated for 24 to 72 hrs by Western blot analysis; type: functional, cell-based; conditions: dose 5-12.5 µM, time 24-72 hrs
EJ-28 [27] = assay: Induction of apoptosis in human EJ-28 cells assessed as upregulation of Bcl-2 expression incubated for 24 hrs by Western blotting analysis; type: functional, cell-based
EJ-28 [28] = assay: Anticancer activity against human EJ-28 cells cultured as 3D spheroids assessed as decrease in spheroid volume at 5 to 20 uM measured upto 5 days by fluorescence microscopic analysis; type: functional, cell-based; conditions: dose 5-20 µM, time <= 5.0 day
EJ-28 [29] = assay: Induction of autophagy in human EJ-28 cells assessed as increase in green fluorescence intensity at 5 to 12.5 uM incubated for 24 hrs by flow cytometry analysis; type: functional, cell-based; conditions: dose 5-12.5 µM
EJ-28 [30] = assay: Inhibition of colony formation in human EJ-28 cells at 1.25 uM incubated for 10 days by crystal violet staining based assay; type: functional, cell-based; conditions: time 10.0 day
EJ-28 [31] = assay: Inhibition of colony formation in human EJ-28 cells at 2.5 to 10 uM incubated for 10 days by crystal violet staining based assay; type: functional, cell-based; conditions: dose 2.5-10 µM, time 10.0 day
EJ-28 [32] = assay: Induction of cell cycle arrest in human EJ-28 cells assessed as accumulation of cells at S phase at 5 uM incubated for 48 hrs by propidium iodide staining based flow cytometry (reference value: 30%); type: functional
[33] = Toxicity in Zebrafish embryo assessed as adverse phenotype at 12.5 to 50 uM administered for 4 hrs post fertilization and measured after 6 days post fertilization; design: species or system Danio rerio; conditions: in vivo, 144 h, dose 12.5-50 µM, time 6 day
EJ-28 [34] = assay: Induction of morphological changes in human EJ-28 cells assessed as cell rounding at 7.5 uM incubated for 24 to 72 hrs by microscopic analysis; type: functional, cell-based; conditions: time 24-72 hrs
[35] = Cytotoxicity against human NHDF cells assessed inhibition of cell growth incubated for 72 hrs by MTT assay; type: toxicity, cell-based
T-24 = assay: Induction of morphological changes in human T24 cells assessed as intracellular vacuolization at 7.5 uM incubated for 48 hrs by microscopic analysis; type: functional, cell-based

For `O=[N+]([O-])c1cccc(/C=C/c2cc(-c3cc(Cl)ccc3O)n(-c3ccccc3)n2)c1`, which Activity (EJ-28 [1]) is on record?
The Activity was “Active”.

And the Activity (EJ-28 [2])?
Its Activity is “Dose-Dependent Effect”.

What about the Activity (EJ-28 [3]) of the same compound?
The Activity was “Active”.

And the Activity (EJ-28 [4])?
Its Activity is “Active”.

And the Activity [5]?
Its Activity is “Non-Toxic”.

What about the Activity (A549 [6]) of the same compound?
The Activity was “Active”.

What about the Activity (SV-HUC-1) of the same compound?
Its Activity is “inactive”.

What about the Activity (EJ-28 [7]) of the same compound?
Its Activity is “inactive”.

And the Activity (EJ-28 [8])?
Its Activity is “Active”.

What about the Activity [9] of the same compound?
The Activity was “Non-Toxic”.

And the Activity (EJ-28 [10])?
The Activity was 27%.

What about the Activity (EJ-28 [11]) of the same compound?
The Activity was “Active”.

What about the Activity (EJ-28 [12]) of the same compound?
Its Activity is 15%.

And the Activity (EJ-28 [13])?
Its Activity is “inactive”.

And the Activity (EJ-28 [14])?
Its Activity is “Active”.

What about the IC50 (A549 [15]) of the same compound?
The IC50 was 15.1 µM.

And the Activity (EJ-28 [16])?
Its Activity is 16%.

And the Activity [17]?
The Activity was “Non-Toxic”.

And the Activity (EJ-28 [18])?
The Activity was “Active”.

What about the Activity (EJ-28 [19]) of the same compound?
The Activity was “Active”.

And the Activity (EJ-28 [20])?
Its Activity is “Active”.

And the Activity (EJ-28 [21])?
The Activity was “Active”.

What about the Activity (EJ-28 [22]) of the same compound?
The Activity was 58%.

What about the Activity (EJ-28 [23]) of the same compound?
The Activity was 18%.

What about the Activity (EJ-28 [24]) of the same compound?
Its Activity is 23%.

And the Activity (EJ-28 [25])?
Its Activity is 57%.

And the Activity (EJ-28 [26])?
Its Activity is “Active”.

What about the Activity (EJ-28 [27]) of the same compound?
The Activity was “Active”.

What about the Activity (EJ-28 [28]) of the same compound?
The Activity was “Active”.

What about the Activity (EJ-28 [29]) of the same compound?
The Activity was “Active”.

And the inhibition (EJ-28 [30])?
Its inhibition is “inactive”.

And the inhibition (EJ-28 [31])?
Its inhibition is “Active”.

What about the Activity (EJ-28 [32]) of the same compound?
Its Activity is 21%.

And the Activity [33]?
The Activity was “Non-Toxic”.

What about the Activity (EJ-28 [34]) of the same compound?
The Activity was “Active”.

And the IC50 at 72 h [35]?
Its IC50 at 72 h is 39.7 µM.

And the Activity (T-24)?
Its Activity is “Active”.
